Assay results published in PMC4125160, “Neurotoxicity and Mode of Action of N, N-Diethyl-Meta-Toluamide (DEET)” (PLoS ONE, 2014).
Values after ≈ are worked out from the molar mass of the structure shown.

Tests used:
[1] = test system: Anopheles gambiae AKRON (pyrethroid and anticholinesterase resistance); experiment: WHO filter paper contact toxicity bioassay; format: in vivo; settings: WHO filter paper assay, 1 h exposure, mortality at 24 h, read-out: LC50 (95% CI)
Protocol: (§1) Contact toxicity bioassays were performed on both strains of Anopheles gambiae, G3 (susceptible) and AKRON (pyrethroid and anticholinesterase resistance) according to WHO protocol. Adult female mosquitoes were 2–5 days of age and non-blood fed at the time of experimentation. Five concentrations of inhibitor dissolved in ethanol were prepared and treated by applying 2 mL of each concentration on a 180 cm^2 (12 cm×15 cm) paper. Papers were left to dry for 24 hours prior to use. Mosquitoes were chilled for three minutes on ice, after which 25 females were placed in the WHO kit holding chamber to recover for one hour. Mosquitoes were then moved to the treatment chamber, which contain the treated paper, and exposed for one hour. After the one-hour exposure, the mosquitoes were transferred back to the holding chamber and maintained on 10% sugar solution for 24 hrs. Each concentration was repeated in triplicate. […] Three LC50 values were obtained and the mean LC50 value was used for statistical analysis.
(§2) For all toxicity assays, control mortality was corrected for using Abbots formula [19]; where corrected percent mortality = (% alive in control–% alive in treated) /% alive in control.

[2] = test system: Anopheles gambiae G3 (susceptible); experiment: WHO filter paper contact toxicity bioassay; format: in vivo; settings: WHO filter paper assay, 1 h exposure, mortality at 24 h, read-out: LC50 (95% CI)
Protocol: as §1, §2

[3] = test system: potassium channels (Kv2 delayed rectifier) in neonatal rat cortical neurons; experiment: Patch clamp of rat cortical neurons, potassium currents; format: cell-based
Protocol: Rat cortical neurons (purchased from Lonza, Walkersville, MD, USA) were placed on poly-lysine coated glass cover slips in 35 mm dishes, and cultured in primary neuron basal medium with added 2% neural grown factor and 1% glutamine (from Lonza). The medium was half changed every 3 days, and the cells were used at 6–12 days. The neurons had dendrites and axons and the diameters of the somata were about 15–20 µm. Cells were cultured on cover slips and were immersed in 35 mm Petri dishes filled with room temperature extracellular saline. Patch pipettes were pulled from borosilicate glass capillaries with filament (BF150-86-10, Sutter Instrument, Novato CA, USA) on a P-1000 Flaming/Brown micropipette puller (Sutter Instrument). Extracellular solution was the same regardless of the target ion channel and contained: 140 mM NaCl, 5 mM KCl, 2 mM MgCl2, 2 mM CaCl2, 10 mM glucose, and 10 mM HEPES (pH = 7.4). Intracellular patch solution for potassium channel recordings consisted of: 140 mM KF, 10 mM NaCl, 2 mM MgCl2, and 10 mM HEPES (pH = 7.2). Intracellular patch solution for sodium channel recordings consisted of: 140 mM CsCH3SO3 10 mM NaCl, 2 mM MgCl2, 10 mM HEPES (pH = 7.2), where CsCH3SO3 was used to eliminate potassium currents during sodium channel analysis. The patch electrodes had resistances of 5–7 MOhms. […]

[4] = test system: housefly larval central nervous system; experiment: Neurophysiological recordings of CNS nerve discharge in housefly larvae; settings: Musca domestica; intact CNS; value (95% CI); read-out: EC50, excitation of nerve firing

For CCN(CC)C(=O)c1cccc(C)c1 [DEET, N, N-diethyl-meta-toluamide], the LC50 [1] was 2700 µg/mL (≈ 14.1 mM), the LC50 [2] was 1900 µg/mL (≈ 9.93 mM) and the “control current amplitude restored by washout” value [3] was “approximately 50%”. For the same molecule, the EC50 [4] was 210 µM.
